Reference: US20130102580A1, “COMPOSITIONS AND METHODS RELATED TO DEOXYCHOLIC ACID AND ITS POLYMORPHS” (Kythera Biopharmaceuticals, Inc., priority 2011, published 2013)

What was measured:
Assay type in all cases: physicochemical
[1] = Drying experiments: form conversion and stability on drying under vacuum (XRPD, HPLC); details: for Degradation by HPLC after drying: dried further for 24 hours
Experimental: Conversion of Form C to Form B was evaluated at 40° C. under vacuum. Two different lots of 215 mg and 134 mg of Form C were dried under vacuum at 40° C.
To evaluate the stability of DCA Form B at 50° C. and 70° C., two lots of Form C were dried at 50° C. and 70° C. for 2 hours. […] The samples were dried further for 24 hours and retained for HPLC analysis.
Another drying study was performed to evaluate the stability of Form B DCA dried at 50° C. with deionized water (DI-water) and EtOH. Samples of DCA (2.0 g) were combined with DI water and EtOH. The samples were then dried under vacuum for an extended period of time at 50° C.
The form conversion of Form C to Form B at approximately 45° C. under vacuum was analyzed by XRPD every 20 minutes. FIG. 4 graphically illustrates the conversion of the Form C to Form B upon heating.
All the experiments were cooled at 10° C./h to 20° C. and left to stir overnight. A final portion of deionized water (Water #3) was added and the mixtures were stirred for 3 hours.

Humidity stress (XRPD) = assay: Humidity stress (XRPD)
Experimental: Approximately 15 mg of Form B lot was stored at 95% relative humidity (RH) at ambient temperature. […] This surprising humidity/temperature stability of Form B was further evidenced from the following experiments. Form B samples were stored at 95% relative humidity (RH) and ambient temperature, and at 75% RH and 40° C. […] The increase of water content appeared to reach a plateau after an initial water sorption period.

[2] = Form conversions via heating (XRPD)
Experimental: 20 mg of DCA Form B was weighed in an alumina crucible and heated from 30° C. to 150° C. at a ramp rate of 10° C./min and then held at 150° C. for 30 minutes. The material was cooled to ambient temperature rapidly on the instrument and analyzed by XRPD.
19 mg of DCA Form B was weighed in an alumina crucible and heated from 30° C. to 135° C. at a ramp rate of 10° C./min and then held at 135° C. for 30 minutes. The material was cooled to ambient temperature rapidly on the instrument and analyzed by XRPD.

[3] = Slurry stability in EtOH/water (XRPD)
Experimental: To evaluate form stability under slurry conditions, Forms A and B were slurried in about 1:1.2 v/v EtOH/water at ambient temperature and at 50° C. […] Approximately 217 mg of DCA Form B was mixed with 1.5 mL of EtOH/water (1:2.37 v/v). The mixture was heated at 50° C. with stirring for 2 hours and an aliquot was filtered to isolate wet solids for XRPD analysis.

[4] = about 1:1.2 v/v EtOH/water, ambient temperature

Row | Polymorphic form by XRPD after drying ([1]; dried at 50° C., 2 hours) | Polymorphic form by XRPD after drying ([1]; dried at 70° C., 2 hours) | Polymorphic form by XRPD after drying ([1]; under vacuum at 40° C., 2 hours, two lots) | Polymorphic form by XRPD after drying ([1]; under vacuum at 40° C., 18 hours) | Polymorphic form by XRPD after drying ([1]; under vacuum at 65° C., 60 hours, solids crystallized from EtOH/water) | Degradation by HPLC after drying ([1]; 50° C.) | Degradation by HPLC after drying ([1]; 70° C.) | Stability by HPLC when dried with DI-water and EtOH ([1]; under vacuum, extended period, 50° C.) | Form conversion under humidity stress (XRPD) (Humidity stress (XRPD); 75% RH, 40° C., 11 days) | Form conversion under humidity stress (XRPD) (Humidity stress (XRPD); 95% RH, ambient temperature, 10 days) | Form conversion under humidity stress (XRPD) (Humidity stress (XRPD); 95% RH, ambient temperature, 11 days) | Form conversion on heating (XRPD) ([2]; 30° C. to 135° C. at 10° C./min, held at 135° C. for 30 minutes) | Form conversion on heating (XRPD) ([2]; 30° C. to 150° C. at 10° C./min, held at 150° C. for 30 minutes) | Form conversion on slurrying (XRPD) ([3]; EtOH/water 1:2.37 v/v, 50° C., 4 hours) | Form conversion on slurrying (XRPD) ([3]; about 1:1.2 v/v EtOH/water, 50° C., 2 hours) | Form conversion on slurrying (XRPD) [3, 4] | Relative thermodynamic stability of the polymorphs ([2]; conversions observed upon heating: C→B→D→A) | Compound | Stability to prolonged heating ([1]; heating up to 70° C.)
1 | form conversion to Form B was complete | form conversion to Form B was complete | converted to Form B | complete conversion to Form B | converted to Form B | – | – | – | – | – | – | – | – | – | – | – | – | C[C@H](CCC(=O)O)[C@H]1CC[C@H]2[C@@H]3CC[C@@H]4C[C@H](O)CC[C@]4(C)[C@H]3C[C@H](O)[C@]12C [Form C, deoxycholic acid] | –
2 | – | – | – | – | – | no degradation | no degradation | stable | no form conversion | no conversion to Form C | no form conversion | complete conversion to Form D | complete conversion to Form A | remained to be Form B | afforded Form C | did not show any form conversion | – | C[C@H](CCC(=O)O)[C@H]1CC[C@H]2[C@@H]3CC[C@@H]4C[C@H](O)CC[C@]4(C)[C@H]3C[C@H](O)[C@]12C [Form B, deoxycholic acid] | stable to prolonged heating at up to 70 °C
3 | – | – | – | – | – | – | – | – | – | – | – | – | – | – | – | converted to Form C | most thermodynamically stable polymorph | C[C@H](CCC(=O)O)[C@H]1CC[C@H]2[C@@H]3CC[C@@H]4C[C@H](O)CC[C@]4(C)[C@H]3C[C@H](O)[C@]12C [Form A, deoxycholic acid] | –
